This note sets out measurements from patent publication US11034735B2, “Hybrid peptide, set of hybrid peptides, composition, uses of the hybrid peptide, method for inducing an immune response and kits” (priority 2017, dated 2021).

The test system of one assay is serum of BALB/c mice. Description: Dot-ELISA, synthetic peptides with serum of immunized BALB/c mice. The note with it: for Peptide Reactivity, Mice serum inoculated with pool / Peptide Reactivity, Mice serum inoculated with isolated peptides 1 / Peptide Reactivity, Mice serum inoculated with isolated peptides 2 / Peptide Reactivity, Mice serum inoculated with isolated peptides 3 / Peptide Reactivity, Mice serum inoculated with Saline (Negative Control) / Reaction with pool of peptides, Mouse 1 serum / Reaction with pool of peptides, Mouse 2 serum / Reaction with pool of peptides, Mouse 3 serum: Dot-ELISA; for Peptide Reactivity, Mice serum inoculated with pool: mice inoculated with pool of all 8 hybrid peptides; for Peptide Reactivity, Mice serum inoculated with isolated peptides 1: serum of mouse 1 inoculated with the same isolated peptide; for Peptide Reactivity, Mice serum inoculated with isolated peptides 1 / Peptide Reactivity, Mice serum inoculated with isolated peptides 2 / Peptide Reactivity, Mice serum inoculated with isolated peptides 3: serum 1:25; for Peptide Reactivity, Mice serum inoculated with isolated peptides 2: serum of mouse 2 inoculated with the same isolated peptide; for Peptide Reactivity, Mice serum inoculated with isolated peptides 3: serum of mouse 3 inoculated with the same isolated peptide; for Peptide Reactivity, Mice serum inoculated with Saline (Negative Control): serum of saline-inoculated mice; for Reaction with pool of peptides, Mouse 1 serum / Reaction with pool of peptides, Mouse 2 serum / Reaction with pool of peptides, Mouse 3 serum: pool of peptides as antigen; for Reaction with pool of peptides, Mouse 1 serum: serum of mouse 1 inoculated with the labelled peptide; for Reaction with pool of peptides, Mouse 2 serum: serum of mouse 2 inoculated with the labelled peptide; for Reaction with pool of peptides, Mouse 3 serum: serum of mouse 3 inoculated with the labelled peptide. More on the design: key to Peptide Reactivity, Mice serum inoculated with isolated peptides 1 / Peptide Reactivity, Mice serum inoculated with isolated peptides 2 / Peptide Reactivity, Mice serum inoculated with isolated peptides 3 / Peptide Reactivity, Mice serum inoculated with pool / Peptide Reactivity, Mice serum inoculated with Saline (Negative Control) / Reaction with pool of peptides, Mouse 1 serum / Reaction with pool of peptides, Mouse 2 serum / Reaction with pool of peptides, Mouse 3 serum: — = Did not react; X = Reacted. The format is in vivo. As to the method: (§1) The immunogenicity of each peptide was checked immunizing BALB/c mice, approximately six weeks old, with […] of protein (Machado et al., 1994). The mice were divided into groups of three animals each. The groups were: P28, P41, P42, P44, P50, P51, P53, P54, Pool (mice inoculated with a pool of peptides, in the case with all 8 hybrid peptides) and negative control group. For inoculations, the peptides were emulsified in Freund's complete adjuvant (Sigma) and inoculated intramuscularly in the quadriceps. Two further immunizations, on the 14th and 28th day after inoculation, were performed using incomplete Freund's adjuvant (Sigma). Each inoculation was carried out using 10 μg/mL of each peptide. Negative control mice were inoculated with sterile saline in place of the peptides and also emulsified in adjuvant. Blood samples were collected by intracardiac puncture on the 10th day after the last immunization and the sera obtained were stored at −20° C. until evaluated by Dot-ELISA and Western-blotting assays.
(§2) Synthetic peptides were used as antigen in the Dot-ELISA technique to verify their ability to react with specific antibodies present in the serum of BALB/c mice, as well as in calf serum, all immunized. The technique was performed as described by Machado et al. (1994), with minor modifications. Briefly, small nitrocellulose discs were cut using a paper punch and each disc arranged in a flat bottom 24-well culture plate well. 4 μg/mL of each synthetic peptide alone, as well as the peptide pool, were deposited on each disc. The discs were dried at room temperature and then blocked for 12 hours at room temperature with […] TBS buffer (0.1 M Tris, 0.1 M NaCl and 0.5% Tween 20; TBS-Tween 20), plus 5% skim milk powder. Test sera were diluted 1:25 (mice and calf) in TBS-Tween 20 containing 5% skim milk powder and incubated for 120 minutes at room temperature and under constant stirring. Then the discs were subjected to two washes with TBS-Tween 20 plus 5% skim milk powder and one wash with TBS-Tween 20 (5 min interval between each wash). To each mouse serum disc was added the alkaline phosphate-coupled anti-mouse conjugate (anti-mouse IgG goat IgG, Sigma A-3562) diluted 1:30,000 in TBS-Tween 20 plus 5% of skim milk powder. To calf serum-containing discs, it was added alkaline phosphate-coupled anti-bovine conjugate (anti-cattle IgG rabbit IgG, Sigma A-0705) diluted 1:30,000 in TBS-Tween 20, plus 5% skim milk powder. After one hour incubation with the appropriate conjugates, washes were followed as in the previous step.
Background: ELISA stands for enzyme-linked immunosorbent assay.

The subject of assay [1] is calf serum. Kind of assay: Dot-ELISA, synthetic peptides with serum of calf immunized with peptide pool. The assay is classed as in vivo. Particulars: for Peptide Reactivity, Calf serum inoculated with pool: Dot-ELISA, peptide as antigen, calf inoculated with pool SEQ ID NO: 20, 21, 23, 25, 26. More on the design: key to Peptide Reactivity, Calf serum inoculated with pool: — = Did not react; X = Reacted.
Source text: (§3) The immunogenicity of the synthetic peptides was verified by immunizing a previously tested calf with negative results for Anaplasma marginale, Babesia bovis and Babesia bigemina by serology and PCR. For inoculations, a peptide pool (SEQ ID NO: 20, SEQ ID NO: 21, SEQ ID NO: 23, SEQ ID NO: 25 and SEQ ID NO: 26) was emulsified in Freund's complete adjuvant (Sigma) and, inoculated intramuscularly in the quadriceps. Two further immunizations, on the 14th and 28th day after inoculation, were performed using incomplete Freund's adjuvant (Sigma). Each inoculation was done using 100 μg/mL of each peptide. Blood samples were collected by jugular puncture on the 10th day after the last immunization and the sera obtained were stored at −20° C. until evaluated by Dot-ELISA and Western-blotting assays.
as §2

Another assay relates to A. marginale antigen. Description: Indirect immunofluorescence reaction, sera of inoculated mice. The assay is classed as in vivo. Particulars: serum 1:25. As to the method:
as §1
The prepared A. marginale antigen-containing blood smear slides were removed from the freezer and thawed at room temperature. […] After drying the slides, they were coverslipped using a buffered glycerine at a 9:1 ratio of glycerine/0.5 M carbonate-bicarbonate buffer pH 9.6 and then observed under a fluorescence microscope (Olympus, BX-FLA).

In a further assay the test system is mouse serum. Description: Western blotting, synthetic peptides with serum of inoculated mice. Particulars: in vivo. As to the method: as §1
(§4) Samples of synthetic peptides were analyzed by Western blotting. To this end, initially, the samples were submitted to polyacrylamide gel electrophoresis under denaturing conditions, according to the technique recommended by Laemmli (1970). Based on the sample volume 2× concentrated sample buffer (250 mM Tris-HCl pH 6.8, 40% glycerol, 8% SDS, 20% β-mercaptoethanol and 0.008% bromophenol blue) was added. The samples were homogenized, incubated for 5 minutes at 100° C. and applied to the gel. The separation gel was prepared at a concentration of 12% polyacrylamide in buffer (1.875 M Tris, pH 8.8 and 1% SDS) and 5% polyacrylamide for buffer packaging gel (1.875 M Tris, pH 6.8 and 0.5% SDS). Electrophoresis was performed in Tris-Glycine Running Buffer (50 mM Tris, pH 8.6, 1.92 M Glycine and 1% SDS) at 100 V for up to 3 hours and 30 minutes at 0° C. in the Mini-Protean II system (Bio-Rad).
Synthetic peptides processed on the polyacrylamide gel (SDS-PAGE) were transferred to the nitrocellulose membrane for analysis by Wester blot (TOWBIN et al., 1979). The nitrocellulose membrane (Merck) was previously incubated in ice cold transfer buffer (0.58% Tris Base pH 8.3, 20% methanol and 0.29% glycine). For this, the membrane was placed in the “Mini Trans-Blot” (Bio-Rad) electrotransfer system containing the same buffer and the transfer was performed at 100 V for 90 minutes. The membrane was incubated in TBS-Tween (10 mM Tris-HCl pH 7.5; 150 mM NaCl, 0.05% Tween-20) plus 5% skim milk powder for 12 hours at 4° C. under low agitation, for saturation of non-specific binding sites. The membrane was then incubated with each serum from each mouse alone or incubated with calf serum for 2 hours at room temperature under slow stirring. […]

Assay [2] has as its system bovine serum serologically positive / negative / vaccinated for A. marginale. Kind of assay: Dot-ELISA, synthetic peptides with sera of cattle serologically positive, negative or vaccinated for A. marginale. The assay is classed as binding. The note with it: peptide as antigen. As to the method:
as §2

Assay [3] deals with calf serum. Kind of assay: Western blotting, synthetic peptides with calf serum. The format is in vivo. Particulars: label = antigen on blot.
Source text: as §3, §4
Synthetic peptides processed on the polyacrylamide gel (SDS-PAGE) were transferred to the nitrocellulose membrane for analysis by Wester blot (TOWBIN et al., 1979). The nitrocellulose membrane (Merck) was previously incubated in ice cold transfer buffer (0.58% Tris Base pH 8.3, 20% methanol and 0.29% glycine). For this, the membrane was placed in the “Mini Trans-Blot” (Bio-Rad) electrotransfer system containing the same buffer and the transfer was performed at 100 V for 90 minutes. The membrane was incubated in TBS-Tween (10 mM Tris-HCl pH 7.5; 150 mM NaCl, 0.05% Tween-20) plus 5% skim milk powder for 12 hours at 4° C. under low agitation, for saturation of non-specific binding sites. The membrane was then incubated with each serum from each mouse alone or incubated with calf serum for 2 hours at room temperature under slow stirring. It was then subjected to three consecutive 10-minute washes with the same solution under slow agitation. […]
(In western blotting, separated proteins are transferred to a membrane and probed.)

“GASTDDAAAAAKIVAMAYGRGGGGTIVPVKTFDDGALTYFQFYDNNKVIP (Synthetic hybrid peptide) [P50]”: in the assay with serum of BALB/c mice (peptide as antigen), the “Peptide Reactivity, Mice serum inoculated with pool” value was “—”; the “Peptide Reactivity, Mice serum inoculated with isolated peptides 1” value (“Peptide Reactivity … with isolated peptides 1” below) is reported as “—”; the “Peptide Reactivity, Mice serum inoculated with isolated peptides 2” value (shortened to “Peptide Reactivity … with isolated peptides 2”) is listed as “—”; the “Peptide Reactivity, Mice serum inoculated with isolated peptides 3” value (“Peptide Reactivity … with isolated peptides 3” for short) is on record as “—”. Moreover, the “Peptide Reactivity, Mice serum inoculated with Saline (Negative Control)” value (“Peptide Reactivity … (Negative Control)” below) in the assay with serum of BALB/c mice (peptide as antigen) is “—”. Further, in the assay with serum of BALB/c mice, the “Reaction with pool of peptides, Mouse 1 serum” value (“Reaction … Mouse 1 serum” for short) is “—”; the “Reaction with pool of peptides, Mouse 2 serum” value (shortened to “Reaction … Mouse 2 serum”) was “—”; the “Reaction with pool of peptides, Mouse 3 serum” value (“Reaction … Mouse 3 serum” below) is “—”. Moreover, the “Peptide Reactivity, Calf serum inoculated with pool” value with calf serum [1] was “—”. In addition, in the assay with A. marginale antigen, the “Indirect immunofluorescence reaction for A. marginale, inoculated mice” value is on record as “positive”.

Consider “LAESTEGNLEEVWILGKGGGGDELSKKVCGKGTTSGSTNQCG (Synthetic hybrid peptide) [P42]”, for which, in the assay on serum of BALB/c mice (peptide as antigen), the “Peptide Reactivity, Mice serum inoculated with pool” value was “—”; the “Peptide Reactivity … with isolated peptides 1” value was “X”; the “Peptide Reactivity … with isolated peptides 2” value is “—”; the “Peptide Reactivity … with isolated peptides 3” value is listed as “—”. In the assay on serum of BALB/c mice (peptide as antigen), the “Peptide Reactivity … (Negative Control)” value is “—” and the “Dot-ELISA reaction of sera from mice inoculated with hybrid peptides alone” value is on record as “reacted”. Also, in the assay on serum of BALB/c mice, the “Reaction … Mouse 1 serum” value is recorded as “—”; the “Reaction … Mouse 2 serum” value is recorded as “—”; the “Reaction … Mouse 3 serum” value is “—”. The “Peptide Reactivity, Calf serum inoculated with pool” value in the assay on calf serum [1] was “—”. For the same sequence, in the assay with mouse serum, the “Western blotting reaction of serum of mice inoculated with synthetic peptide” value is recorded as “reacted”. The “Indirect immunofluorescence reaction for A. marginale, inoculated mice” value in the assay on A. marginale antigen was “positive”.

On to “SKVASVEYILAARGGGGQVDRLANALGKGGGGAMGDSVHWKVKPVDNKLFIMP (Synthetic hybrid peptide) [P53]”, for which, in the assay with serum of BALB/c mice (peptide as antigen), the “Peptide Reactivity, Mice serum inoculated with pool” value was “X”; the “Peptide Reactivity … with isolated peptides 1” value was “—”; the “Peptide Reactivity … with isolated peptides 2” value is listed as “—”; the “Peptide Reactivity … with isolated peptides 3” value is recorded as “—”. For the same sequence, in the assay on serum of BALB/c mice (peptide as antigen), the “Peptide Reactivity … (Negative Control)” value is “—”. For the same sequence, in the assay on serum of BALB/c mice, the “Reaction … Mouse 1 serum” value is recorded as “X”; the “Reaction … Mouse 2 serum” value is “X”; the “Reaction … Mouse 3 serum” value is listed as “X”. In addition, the “Dot-ELISA reaction of mouse sera inoculated with the peptide pool” value in the assay with serum of BALB/c mice (peptide as antigen, pool of all 8 hybrid peptides) is reported as “reacted”. The “Peptide Reactivity, Calf serum inoculated with pool” value in the assay with calf serum [1] is listed as “X”. In the assay on calf serum [1] (label = antigen on disc), the “Dot-ELISA reaction of calf serum inoculated with the peptide pool with the antigen” value is “reacted”. Moreover, in assay [2], the “Reaction of sera from serologically positive cattle for A. marginale with synthetic peptide” value was “reacted”. The “Western blotting reactivity of calf serum inoculated with the peptide pool” value in the assay on calf serum [3] is reported as “showed reactivity”. For the same sequence, the “Western blotting reaction of serum of mice inoculated with synthetic peptide” value with mouse serum is reported as “reacted”.
